Assay results from patent US9555022B2, “Substituted triazolopyridines” (Bayer Intellectual Property GmbH, priority 2010, dated 2017).
Where a name gives a salt, the structure may show the parent alone.

biological target: human full length recombinant Mps-1 kinase (Homo sapiens (Human), UniProt P33981); assay: Mps-1 Kinase Assay (TR-FRET); type: biochemical; conditions: 10 μM ATP, 1 μM biotinylated peptide substrate, 60 min at 22° C., read-out: Mps-1 Inhibition, IC50 in M
Description: The human kinase Mps-1 phosphorylates a biotinylated substrate peptide. Detection of the phosphorylated product is achieved by time-resolved fluorescence resonance energy transfer (TR-FRET) from Europium-labelled anti-phospho-Serine/Threonine antibody as donor to streptavidin labelled with cross-linked allophycocyanin (SA-XLent) as acceptor. Compounds are tested for their inhibition of the kinase activity.
N-terminally GST-tagged human full length recombinant Mps-1 kinase (purchased from Invitrogen, Karslruhe, Germany, cat. no PV4071) was used. As substrate for the kinase reaction a biotinylated peptide of the amino-acid sequence […] (C-terminus in amide form, purchased from Biosynthan GmbH, Berlin) was used.
The concentration of Mps-1 in the assay was adjusted to the activity of the enzyme lot and was chosen appropriate to have the assay in the linear range, typical enzyme concentrations were in the range of about 1 nM (final conc. in the 5 μl assay volume).
The resulting mixture was incubated 1 h at 22° C. to allow the binding of the phosphorylated peptide to the anti-phospho(Ser/Thr)-Europium-antibody. Subsequently the amount of phosphorylated substrate was evaluated by measurement of the resonance energy transfer from the Europium-labelled anti-phospho(Ser/Thr) antibody to the Streptavidin-XLent.

human full length recombinant Mps-1 kinase, sequence (P33981 whole entry): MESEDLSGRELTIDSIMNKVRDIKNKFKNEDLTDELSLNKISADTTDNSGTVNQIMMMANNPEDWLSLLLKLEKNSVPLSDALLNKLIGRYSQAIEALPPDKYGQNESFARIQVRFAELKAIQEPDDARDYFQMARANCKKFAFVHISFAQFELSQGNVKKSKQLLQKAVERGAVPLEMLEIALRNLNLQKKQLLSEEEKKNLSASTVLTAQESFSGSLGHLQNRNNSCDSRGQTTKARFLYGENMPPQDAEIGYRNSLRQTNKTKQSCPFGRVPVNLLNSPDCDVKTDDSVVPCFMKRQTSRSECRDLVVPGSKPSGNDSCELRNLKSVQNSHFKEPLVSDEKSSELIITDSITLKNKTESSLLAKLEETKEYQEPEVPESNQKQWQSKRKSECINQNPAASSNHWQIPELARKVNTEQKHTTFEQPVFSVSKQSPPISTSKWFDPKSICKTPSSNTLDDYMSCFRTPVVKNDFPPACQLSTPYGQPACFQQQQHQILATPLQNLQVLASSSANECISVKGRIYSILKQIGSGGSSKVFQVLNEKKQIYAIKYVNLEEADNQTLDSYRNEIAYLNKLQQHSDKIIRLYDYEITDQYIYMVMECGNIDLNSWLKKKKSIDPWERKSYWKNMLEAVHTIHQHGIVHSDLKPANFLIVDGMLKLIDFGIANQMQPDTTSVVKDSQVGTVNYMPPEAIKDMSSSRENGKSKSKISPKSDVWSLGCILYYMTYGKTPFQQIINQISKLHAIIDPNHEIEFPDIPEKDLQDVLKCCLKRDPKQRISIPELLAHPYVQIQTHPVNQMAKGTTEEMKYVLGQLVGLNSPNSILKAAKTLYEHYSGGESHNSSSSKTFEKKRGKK

SMILES	IC50 [nM]
COc1cc(C2=NC(C)(C)CO2)ccc1Nc1nc2ccc(-c3ccc(C(=O)NCC4CC4)cc3)cn2n1 [Example 03.03, N-(cyclopropylmethyl)-4-(2-{[4-(4,4-dimethyl-4,5-dihydro-1,3-oxazol-2-yl)-2-methoxyphenyl]amino}[,2]-triazolo[1,5-a]pyridin-6-yl)benzamide]	5.51
COc1cc(C(=O)N2CCOCC2)ccc1Nc1nc2ccc(-c3ccc(C(=O)NCC4CC4)cc3)cn2n1 [Example 03.01, N-(cyclopropylmethyl)-4-(2-{[2-methoxy-4-(morpholin-4-ylcarbonyl)phenyl]amino}[,2]-triazolo[1,5-a]pyridin-6-yl)benzamide]	2.71
CCOc1cc(N2CCOC2=O)ccc1Nc1nc2ccc(-c3ccc(NC(=O)Cc4ccc(F)cc4)cc3)cn2n1 [Example 02.12, N-[4-(2-{[2-ethoxy-4-(2-oxo-1,3-oxazolidin-3-yl)phenyl]amino}[,2]-triazolo[1,5-a]pyridin-6-yl)phenyl]-2-(4-fluorophenyl)acetamide]	≤ 1
CCOc1cc(C(=O)N2CC3(COC3)C2)ccc1Nc1nc2ccc(-c3ccc(C(=O)NCc4ccc(F)cc4)cc3)cn2n1 [Example 04.12, 4-(2-{[2-ethoxy-4-(2-oxa-6-azaspiro[3.3]hept-6-ylcarbonyl)phenyl]amino}[,2]-triazolo[1,5-a]pyridin-6-yl)-N-(4-fluorobenzyl)benzamide]	≤ 1
O=C(Cc1ccc(F)cc1)Nc1ccc(-c2ccc3nc(Nc4ccc(C(=O)N5CCOCC5)cc4OC(F)(F)F)nn3c2)cc1 [Example 02.10, 2-(4-fluorophenyl)-N-[4-(2-{[4-(morpholin-4-ylcarbonyl)-2-(trifluoromethoxy)phenyl]amino}[,2]-triazolo[1,5-a]pyridin-6-yl)phenyl]acetamide]	≤ 1
CCOc1cc(C(=O)N2CC3(COC3)C2)ccc1Nc1nc2ccc(-c3ccc(NC(=O)Cc4ccc(F)cc4)cc3)cn2n1 [Example 02.23, N-[4-(2-{[2-ethoxy-4-(2-oxa-6-azaspiro[3.3]hept-6-ylcarbonyl)phenyl]amino}[,2]triazolo[1,5-a]pyridin-6-yl)phenyl]-2-(4-fluorophenyl)acetamide]	≤ 1
CSc1cc(OC2CCN(C)CC2)ccc1Nc1nc2ccc(-c3ccc(C(=O)NCc4ccc(F)cc4)cc3)cn2n1 [Example 04.27, N-(4-fluorobenzyl)-4-[2-({4-[(1-methylpiperidin-4-yl)oxy]-2-(methylsulfanyl)phenyl}amino)[,2]triazolo[1,5-a]pyridin-6-yl]benzamide]	≤ 1
COc1cc(C(=O)N2CCOCC2)ccc1Nc1nc2ccc(-c3ccc(NC(=O)CC4CC4)cc3)cn2n1 [Example 01.01, 2-cyclopropyl-N-[4-(2-{[2-methoxy-4-(morpholin-4-ylcarbonyl)phenyl]amino}[,2]-triazolo[1,5-a]pyridin-6-yl)phenyl]acetamide]	5.56
O=C(NCc1ccc(F)cc1)c1ccc(-c2ccc3nc(Nc4ccc(C(=O)N5CCOCC5)cc4C(F)(F)F)nn3c2)cc1 [Example 04.23, N-(4-fluorobenzyl)-4-(2-{[4-(morpholin-4-ylcarbonyl)-2-(trifluoromethyl)phenyl]amino}[,2]triazolo[1,5-a]pyridin-6-yl)benzamide]	≤ 1
COc1cc(C(=O)N2CCOCC2)ccc1Nc1nc2ccc(-c3ccc(C(=O)NCc4ccc(F)cc4)c(OC)c3)cn2n1 [Example 09.01, N-(4-fluorobenzyl)-2-methoxy-4-(2-{[2-methoxy-4-(morpholin-4-ylcarbonyl)phenyl]amino}[,2]-triazolo[1,5-a]pyridin-6-yl)benzamide]	≤ 1
Cc1nc(N2CCCC2)ccc1Nc1nc2ccc(-c3ccc(NC(=O)Cc4ccc(F)cc4)cc3)cn2n1 [Example 02.43, 2-(4-fluorophenyl)-N-[4-(2-{[2-methyl-6-(pyrrolidin-1-yl)pyridin-3-yl]amino}[,2]-triazolo[1,5-a]pyridin-6-yl)phenyl]acetamide]	≤ 1
COc1cc(N2CCN(C)CC2)ccc1Nc1nc2ccc(-c3ccc(C(=O)NCC4CC4)cc3)cn2n1 [Example 03.05, N-(cyclopropylmethyl)-4-(2-{[2-methoxy-4-(4-methylpiperazin-1-yl)phenyl]amino}[,2]-triazolo[1,5-a]pyridin-6-yl)benzamide trifluoroacetate]	6.33
COc1cc(CN2CCN(C)CC2)ccc1Nc1nc2ccc(-c3ccc(C(=O)NCc4ccc(F)cc4)cc3)cn2n1 [Example 04.24, N-(4-fluorobenzyl)-4-[2-({2-methoxy-4-[(4-methylpiperazin-1-yl)methyl]phenyl}amino)[,2]triazolo[1,5-a]pyridin-6-yl]benzamide]	≤ 1

More lines, now with the values ahead:

IC50 [nM]	SMILES
≤ 1	COc1ccc(C(=O)N2CCOCC2)cc1Nc1nc2ccc(-c3ccc(C(=O)NCc4ccc(F)cc4)cc3)cn2n1 [Example 04.32, N-(4-fluorobenzyl)-4-(2-{[2-methoxy-5-(morpholin-4-ylcarbonyl)phenyl]amino}[,2]-triazolo[1,5-a]pyridin-6-yl)benzamide]
≤ 1	COc1cc(CN2CCOCC2)ccc1Nc1nc2ccc(-c3ccc(C(=O)NCc4ccc(F)cc4)cc3)cn2n1 [Example 04.25, N-(4-fluorobenzyl)-4-(2-{[2-methoxy-4-(morpholin-4-ylmethyl)phenyl]amino}[,2]-triazolo[1,5-a]pyridin-6-yl)benzamide]
≤ 1	COc1cc(CN2CCOCC2)ccc1Nc1nc2ccc(-c3ccc(C(=O)NCc4ccc(F)cc4)c(F)c3)cn2n1 [Example 06.02, 2-fluoro-N-(4-fluorobenzyl)-4-(2-{[2-methoxy-4-(morpholin-4-ylmethyl)phenyl]amino}[,2]-triazolo[1,5-a]pyridin-6-yl)benzamide]
≤ 1	COc1cc(C(=O)N2CCN(C)CC2)ccc1Nc1nc2ccc(-c3ccc(NC(=O)Cc4ccc(F)cc4)cc3)cn2n1 [Example 02.04, 2-(4-fluorophenyl)-N-{4-[2-({2-methoxy-4-[(4-methylpiperazin-1-yl)carbonyl]phenyl}amino)[,2]triazolo[1,5-a]pyridin-6-yl]phenyl}acetamide]
≤ 1	COc1cc(C(=O)N2CCOCC2)ccc1Nc1nc2ccc(-c3ccc(NC(=O)Cc4ccc(F)cc4)c(F)c3)cn2n1 [Example 10.01, N-[2-fluoro-4-(2-{[2-methoxy-4-(morpholin-4-ylcarbonyl)phenyl]amino}[,2]-triazolo[1,5-a]pyridin-6-yl)phenyl]-2-(4-fluorophenyl)acetamide]
≤ 1	COc1cc(C(=O)N2CCOCC2)ccc1Nc1nc2ccc(-c3ccc(C(=O)NCc4ccc(C)cc4)cc3)cn2n1 [Example 05.02, 4-(2-{[2-methoxy-4-(morpholin-4-ylcarbonyl)phenyl]amino}[,2]-triazolo[1,5-a]pyridin-6-yl)-N-(4-methylbenzyl)benzamide]
≤ 1	COc1cc(N2CCOC2=O)ccc1Nc1nc2ccc(-c3ccc(C(=O)NCc4ccc(F)cc4F)c(C)c3)cn2n1 [Example 12.01, N-(2,4-difluorobenzyl)-4-(2-{[2-methoxy-4-(2-oxo-1,3-oxazolidin-3-yl)phenyl]amino}[,2]triazolo[1,5-a]pyridin-6-yl)-2-methylbenzamide]
≤ 1	CCOc1cc(C(=O)N2CCOCC2)ccc1Nc1nc2ccc(-c3ccc(NC(=O)Cc4ccc(F)cc4)nc3)cn2n1 [Example 11.02, N-[5-(2-{[2-ethoxy-4-(morpholin-4-ylcarbonyl)phenyl]amino}[,2]triazolo[1,5-a]pyridin-6-yl)pyridin-2-yl]-2-(4-fluorophenyl)acetamide]
≤ 1	COc1cc(C(=O)N2CCS(=O)(=O)CC2)ccc1Nc1nc2ccc(-c3ccc(NC(=O)Cc4ccc(F)cc4)cc3)cn2n1 [Example 02.18, N-{4-[2-({4-[(1,1-dioxidothiomorpholin-4-yl)carbonyl]-2-methoxyphenyl}amino)[,2]triazolo[1,5-a]pyridin-6-yl]phenyl}-2-(4-fluorophenyl)acetamide]
≤ 1	COc1cc(OC2CCN(C)CC2)ccc1Nc1nc2ccc(-c3ccc(NC(=O)Cc4ccc(F)cc4)cc3)cn2n1 [Example 02.35, 2-(4-fluorophenyl)-N-{4-[2-({2-methoxy-4-[(1-methylpiperidin-4-yl)oxy]phenyl}amino)[,2]triazolo[1,5-a]pyridin-6-yl]phenyl}acetamide]
≤ 1	O=C(NCc1ccc(F)cc1)c1ccc(-c2ccc3nc(Nc4ccc(C(=O)N5CC6(COC6)C5)cc4OC(F)(F)F)nn3c2)cc1 [Example 04.30, N-(4-fluorobenzyl)-4-(2-{[4-(2-oxa-6-azaspiro[3.3]hept-6-ylcarbonyl)-2-(trifluoromethoxy)phenyl]amino}[,2]-triazolo[1,5-a]pyridin-6-yl)benzamide]
≤ 1	Cc1cc(C(=O)N2CC3(COC3)C2)ccc1Nc1nc2ccc(-c3ccc(NC(=O)Cc4ccc(F)cc4)cc3)cn2n1 [Example 02.38, 2-(4-fluorophenyl)-N-[4-(2-{[2-methyl-4-(2-oxa-6-azaspiro[3.3]hept-6-ylcarbonyl)phenyl]amino}[,2]triazolo[1,5-a]pyridin-6-yl)phenyl]acetamide]
≤ 1	Cc1cc(C(=O)N2CCOCC2)ccc1Nc1nc2ccc(-c3ccc(NC(=O)Cc4ccc(F)cc4)cc3)cn2n1 [Example 02.39, 2-(4-fluorophenyl)-N-[4-(2-{[2-methyl-4-(morpholin-4-ylcarbonyl)phenyl]amino}[,2]-triazolo[1,5-a]pyridin-6-yl)phenyl]acetamide]
